{"source": "patent US9856511B2", "about": "“Protease deubiquitinating inhibitor screening” (priority 2011, dated 2018)", "key": {"[1]": {"target": "T1, USP14 (Homo sapiens, UniProt P54578)", "T1 construct": "purchased Boston Biochem E-366 (19S), E-365 (26S)", "test": "HA-UbVS competitive active-site labelling of 19S RP or 26S proteasomes", "format": "binding", "settings": "19S RP or 26S proteasomes incubated with b-AP15", "excerpt": "(§1) The deubiquitinating activity of the proteasome is attributed to the action of three DUBs, UCHL5, USP14 and POH1, all localized within the 19S RP 26-28. Both UCHL5 and USP14 are sensitive to N-ethylmaleimide (NEM), a general inhibitor of cysteine proteases, whereas POH1 is insensitive to inhibition by NEM but sensitive to metal chelators such as N,N,N,N-tetrakis-(2-pyridylmethyl)ethylenediamine (TPEN) (29). […] To identify specifically which DUBs were inhibited by b-AP15 treatment, competitive labelling experiments were performed using hemagglutinin tagged ubiquitin vinylsulphonone (HA-UbVS), an active site directed probe that irreversibly reacts with DUBs of the cysteine class (26).\n(§2) For labelling of DUBs in cell lysates sub confluent cells were harvested by trypsinization, washed three times with PBS, and centrifuged at 1500 RPM for 5 min. Cell pellets were lysed with buffer (50 mM HEPES pH 7.4, 250 mM sucrose, 10 mM MgCl2, 2 mM ATP, 1 mM DTT) on ice for 15 min. Debris was removed by centrifugation and 25 μg of protein was labelled with 1 μM HA-UbVS for 30 min at 37° C. Samples were resolved by SDS-PAGE and analyzed by immunoblotting with indicated antibodies.\n(§3) 19S RP were pre-treated with DMSO, NEM (10 mM) b-AP15 (50 μM) (FIG. 3a) or TPEN (250 μM) (FIG. 3b) followed by addition of Ub-GFP and immunoblotting with anti-GFP antibodies. […]"}, "[2]": {"target": "T2, UCHL5 (Homo sapiens, UniProt Q9Y5K5)", "T2 construct": "purchased Boston Biochem E-366 (19S), E-365 (26S)", "test": "HA-UbVS competitive active-site labelling of 19S RP or 26S proteasomes", "format": "binding", "settings": "19S RP or 26S proteasomes incubated with b-AP15", "excerpt": "as §1, §2, §3"}, "[3]": {"target": "T3, 19S RP (Homo sapiens, UniProt P54578+Q9Y5K5)", "T3 construct": "purchased Boston Biochem E-366", "test": "Ubiquitin chain disassembly of K48/K63 linked ubiquitin tetramers by 19S RP", "format": "biochemical", "protocol": "(§4) To this end the ability of b-AP15 to inhibit cleavage of recombinant ubiquitin-GFP was assessed. Recombinant ubiquitin-GFP is a substrate for 19S RP DUB activity (22). […] The type of ubiquitin bonds present in the polyubiquitin chain determines the fate of an ubiquitin-modified substrate. K48 linked polyubiquitin chains generally targets conjoined proteins for degradation (23), whereas K63 linked chains are involved in non-proteolytic roles including DNA repair (24) and mitotic chromosome segregation (25). […] The inhibition of ubiquitin chain disassembly observed could account for the accumulation of high molecular weight ubiquitin conjugates in b-AP15 treated cells.\n(§5) The recombinant Ub-GFP plasmid pet19b Ub-M-GFP was generated as described (42). In brief recombinant Ub-GFP was purified from BL21 E. coli cells by His affinity purification. For cleavage assays 19S RP (25 nM) was incubated with 10 mM NEM, 250 μM TPEN or 50 μM b-AP15 for 10 min followed by the addition of recombinant Ub-GFP (200 nM). […] The level of Ub-GFP cleavage or ubiquitin disassembly was determined by immunoblotting with anti ubiquitin antibodies. […] The cleavage of ubiquitinated Hdm2 substrate and ubiquitinated Hdm2 was determined by immunoblotting with anti-Hdm2 antibodies. […]"}, "[4]": {"target": "T3, 19S RP", "test": "Ub-GFP cleavage assay with 19S RP", "format": "biochemical", "protocol": "as §4, §5"}, "[5]": {"target": "T4, USP5 (Homo sapiens, UniProt P45974)", "T4 sequence (P45974 1-858)": "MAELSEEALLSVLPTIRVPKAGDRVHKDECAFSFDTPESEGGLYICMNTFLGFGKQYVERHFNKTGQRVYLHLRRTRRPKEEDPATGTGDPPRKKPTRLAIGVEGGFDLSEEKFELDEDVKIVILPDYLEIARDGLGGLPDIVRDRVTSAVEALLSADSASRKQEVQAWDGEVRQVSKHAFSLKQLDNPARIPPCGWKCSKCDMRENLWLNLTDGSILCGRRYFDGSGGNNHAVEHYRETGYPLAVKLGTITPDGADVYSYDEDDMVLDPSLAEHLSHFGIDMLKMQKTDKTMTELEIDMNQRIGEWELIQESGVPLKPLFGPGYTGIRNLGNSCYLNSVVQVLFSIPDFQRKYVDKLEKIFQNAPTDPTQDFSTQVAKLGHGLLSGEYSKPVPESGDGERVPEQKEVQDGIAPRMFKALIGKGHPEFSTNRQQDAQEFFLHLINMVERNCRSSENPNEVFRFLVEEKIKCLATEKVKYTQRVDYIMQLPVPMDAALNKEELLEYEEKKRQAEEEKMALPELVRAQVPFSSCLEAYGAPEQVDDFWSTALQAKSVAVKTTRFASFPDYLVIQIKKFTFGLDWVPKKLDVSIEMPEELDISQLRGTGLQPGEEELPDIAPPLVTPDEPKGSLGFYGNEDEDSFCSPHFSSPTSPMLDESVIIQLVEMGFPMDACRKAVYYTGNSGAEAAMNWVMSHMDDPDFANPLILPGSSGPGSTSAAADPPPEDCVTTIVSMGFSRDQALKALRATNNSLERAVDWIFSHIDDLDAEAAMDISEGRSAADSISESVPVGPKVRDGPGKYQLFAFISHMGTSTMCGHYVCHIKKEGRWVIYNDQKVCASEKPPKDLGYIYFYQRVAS", "test": "HA-UbVS competitive labelling, non-proteasomal DUB", "format": "binding", "excerpt": "as §1, §2"}}}
{"smiles": "C=CC(=O)N1C/C(=C\\c2ccc([N+](=O)[O-])cc2)C(=O)/C(=C/c2ccc([N+](=O)[O-])cc2)C1", "note": "[b-AP15]", "values": [{"measurement": "Ub-VS labelling of USP14", "setting": "[1]", "value": "abolished Ub-VS labelling"}, {"measurement": "Ub-VS labelling of UCHL5", "setting": "[2]", "value": "abolished Ub-VS labelling"}, {"measurement": "19S RP processing of K48 and K63 linked ubiquitin tetramers", "setting": "[3]", "value": "inhibited 19S RP processing of both K48 and K63 linked ubiquitin tetramers"}, {"measurement": "cleavage of Ub-GFP by 19S RP", "setting": "[4]", "value": "effectively inhibited"}, {"measurement": "activity of non-proteasomal DUB USP5", "setting": "[5]", "value": "without affecting the activity"}]}
